Where two headings read alike, the source gives them in different places.
Assays:
Type in all cases: cell-based
HUVEC [1] = experiment: Cell proliferation experiment (EC50), HUVEC; settings: Homo sapiens
PLK1 = target: T1, PLK1 (Homo sapiens, UniProt P53350); experiment: Western blot, protein degradation (DC50)
T1 construct: endogenous in cells
Summary of the method: (§1)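 Cells treated with compound, lysed in RIPA and resolved by SDS-PAGE (4%-12%); PVDF blots probed with primary antibody overnight at 4° C, then secondary antibody, and developed with ECL. Band intensities quantified by densitometry to give degradation.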

PBMC [2] = experiment: Cell proliferation experiment (EC50), PBMC
[3] = test system: Human Acute Myelomonocytic Leukemia HL-60; experiment: Cell proliferation experiment (Alarm blue, 72 h, EC50); settings: HL-60 cells
Summary of the method: (§2)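 Duplicate wells per concentration, 5-fold dilution series, 72 h continuous exposure of log-phase cells; read-out Alamar blue fluorescence, EC50 derived by curve fit with minimum, maximum and slope terms.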

[4] = test system: Human Colon Cancer HCT-116; experiment: as above; settings: Homo sapiens, HCT-116; HCT116 cells
Summary of the method: as §2

[5] = test system: Human Monocytic Leukemia MV4-11; experiment: as above; settings: Homo sapiens
Summary of the method: as §2

Daudi [6] = experiment: Cell proliferation experiment (EC50), Daudi; settings: Homo sapiens; Daudi cells
[7] = test system: Human Small Cell Lung Cancer NCI-H82; experiment: Cell proliferation experiment (Alarm blue, 72 h, EC50); settings: Homo sapiens, NCI-H82; NCIH82 cells
Summary of the method: as §2

[8] = test system: Human Glioma Cells U-87 MG; experiment: as above; settings: Homo sapiens; U-87MG cells
Summary of the method: as §2

Human Colon Cancer HT-29 = experiment: as above; settings: Homo sapiens; HT-29 cells
Summary of the method: as §2

PBMC [9] = experiment: Cell proliferation experiment (EC50), PBMC; remark: listed apart in the source
HUVEC [10] = experiment: Cell proliferation experiment (EC50), HUVEC; settings: Homo sapiens; remark: listed apart in the source
BRD4 = target: T2, BRD4 (Homo sapiens, UniProt O60885); experiment: Western blot, protein degradation (DC50)
T2 construct: endogenous in cells
Summary of the method: as §1

Daudi [11] = experiment: Cell proliferation experiment (EC50), Daudi; settings: Homo sapiens; Daudi cells; remark: listed apart in the source
A549 [12] = experiment: Cell proliferation experiment (EC50), A549; settings: Homo sapiens; A549 cells
PBMC [13] = experiment: Cell proliferation experiment (EC50), PBMC; remark: listed apart in the source
HUVEC [14] = experiment: Cell proliferation experiment (EC50), HUVEC; settings: Homo sapiens; remark: listed apart in the source
U937 [15] = experiment: Cell proliferation experiment (EC50), U937; settings: Homo sapiens, U-937; U937 cells
[16] = test system: Human Monocytic Leukemia THP-1; experiment: Cell proliferation experiment (Alarm blue, 72 h, EC50); settings: THP-1 cells
Summary of the method: as §2

[17] = test system: Human cervical adenocarcinoma cells Hela; experiment: as above; settings: Homo sapiens
Summary of the method: as §2

[18] = test system: Human Ovarian Cancer SK-OV-3; experiment: as above; settings: Homo sapiens, SK-OV-3; SKO3 cells
Summary of the method: as §2

[19] = test system: Human Acute Lymphoblastic Leukemia Cells MOLT-4; experiment: as above; settings: MOL4-4 cells
Summary of the method: as §2

[20] = test system: Human Breast Cancer MDA-MB-231; experiment: as above; settings: Homo sapiens; MDA-MB-231 cells
Summary of the method: as §2

Daudi [21] = experiment: Cell proliferation experiment (EC50), Daudi; settings: Homo sapiens; Daudi cells; remark: listed apart in the source
U937 [22] = experiment: Cell proliferation experiment (EC50), U937; settings: Homo sapiens, U-937; U937 cells; remark: listed apart in the source
A549 [23] = experiment: Cell proliferation experiment (EC50), A549; settings: Homo sapiens; A549 cells; remark: listed apart in the source
[24] = 6 h, read-out: PLK1 DC50 (nM) (6 h)
[25] = 6 h, read-out: BRD4 DC50 (nM) (6 h)
[26] = 24 h, read-out: BRD4 DC50 (nM) (24 h)
[27] = 24 h, read-out: PLK1 DC50 (nM) (24 h)

T1 sequence (P53350 whole entry): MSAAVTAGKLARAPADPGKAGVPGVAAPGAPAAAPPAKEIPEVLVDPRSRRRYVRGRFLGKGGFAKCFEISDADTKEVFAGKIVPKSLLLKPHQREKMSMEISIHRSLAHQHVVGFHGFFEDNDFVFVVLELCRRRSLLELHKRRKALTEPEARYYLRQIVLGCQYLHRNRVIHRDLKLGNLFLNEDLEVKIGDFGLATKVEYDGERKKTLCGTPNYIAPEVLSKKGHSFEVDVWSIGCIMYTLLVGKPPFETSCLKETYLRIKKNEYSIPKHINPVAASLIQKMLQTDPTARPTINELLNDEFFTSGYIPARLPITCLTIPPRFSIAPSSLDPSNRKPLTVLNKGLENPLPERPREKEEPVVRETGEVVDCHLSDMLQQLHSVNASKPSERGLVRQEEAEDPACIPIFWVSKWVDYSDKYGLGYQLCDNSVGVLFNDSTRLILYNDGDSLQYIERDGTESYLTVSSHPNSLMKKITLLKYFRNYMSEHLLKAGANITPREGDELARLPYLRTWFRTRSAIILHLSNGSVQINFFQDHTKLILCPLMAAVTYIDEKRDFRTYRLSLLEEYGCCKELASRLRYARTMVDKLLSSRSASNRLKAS

Structure (SMILES) | EC50 (HUVEC [1]) [nM] | DC50 (PLK1; [24]) [nM] | EC50 (PBMC [2]) [nM] | EC50 [3] [nM] | EC50 [4] [nM] | EC50 ([5]; MV4-11, MV4;11 cells) [nM] | EC50 [7] [nM] | EC50 [8] [nM] | EC50 (Human Colon Cancer HT-29) [nM] | DC50 (BRD4; [25]) [nM] | DC50 (BRD4; [26]) [nM] | DC50 (PLK1; [27]) [nM] | EC50 [16] [nM] | EC50 [17] [nM] | EC50 [18] [nM] | EC50 [20] [nM] | further results
O=C1CCC(N2Cc3c(NC(=O)CNCCOCCOCCOCCNC(=O)[C@]4(Cc5cccc(Nc6nccs6)n5)CC[C@@H](Oc5cccc(Cl)c5F)CC4)cccc3C2=O)C(=O)N1 (stereo partly drawn) [UB-180730] | > 1000 | < 10 | > 1000 | > 1000 | 100 to 1000 | 10 to 100 |  |  |  |  |  |  |  |  |  |  | 
CC[C@@H]1C(=O)N(C)c2cnc(Nc3ccc(C(=O)NCCOCCOCCOCCC(=O)Nc4cccc5c4CN(C4CCC(=O)NC4=O)C5=O)cc3OC)nc2N1C1CCCC1 (stereo partly drawn) [UB-180605] |  |  |  |  |  | 10 to 100 | 100 to 1000 | 100 to 1000 | 100 to 1000 |  |  |  |  |  |  |  | EC50 (Daudi [6]): 100 to 1000 nM
O=C1CCC(N2Cc3c(NC(=O)CCOCCOCCOCCNC(=O)c4ccc(Nc5ncc6c(n5)-c5ccc(Cl)cc5C(c5c(F)cccc5F)=NC6)cc4)cccc3C2=O)C(=O)N1 (stereo not drawn) [UB-180535] |  |  |  | > 1000 | > 1000 | 10 to 100 |  |  |  |  |  |  |  |  |  |  | EC50 (PBMC [9]): > 1000 nM; EC50 (HUVEC [10]): > 1000 nM
CC[C@@H]1C(=O)N(C)c2cnc(Nc3ccc(C(=O)NCc4cn(CCNCCC(=O)Nc5cccc6c5CN(C5CCC(=O)NC5=O)C6=O)nn4)cc3OC)nc2N1Cc1ccc(Cl)s1 (stereo partly drawn) [UB-180714] | 100 to 1000 | 10 to 100 | 100 to 1000 |  |  | 10 to 100 |  |  |  | < 10 | < 10 | < 10 |  |  |  |  | 
CC[C@@H]1CN(C)c2cnc(Nc3ccc(C(=O)NCCOCCOCCOCCNCCC(=O)Nc4cccc5c4CN(C4CCC(=O)NC4=O)C5=O)cc3OC)nc2N1Cc1ccc(Cl)s1 (stereo partly drawn) [UB-180701] |  |  |  | 100 to 1000 | 100 to 1000 |  | 100 to 1000 | 100 to 1000 | 100 to 1000 |  |  |  | 100 to 1000 | 100 to 1000 | 100 to 1000 | 100 to 1000 | DC50 (BRD4; 6 h, western blot, read-out: BRD4 DC50 (6 h)): < 10 nM; DC50 (BRD4; 24 h, western blot, read-out: BRD4 DC50 (24 h)): < 10 nM; DC50 (PLK1; 6 h, western blot, read-out: PLK1 DC50 (6 h)): 10 to 100 nM; DC50 (PLK1; 24 h, western blot, read-out: PLK1 DC50 (24 h)): < 10 nM; EC50 (Daudi [11]): 100 to 1000 nM; EC50 (A549 [12]): 100 to 1000 nM; EC50 (PBMC [13]): > 1000 nM; EC50 (HUVEC [14]): > 1000 nM; EC50 (U937 [15]): 100 to 1000 nM; EC50 [19]: 100 to 1000 nM; EC50 ([5]; MV4;11 cells): < 10 nM
CC[C@@H]1C(=O)N(C)c2cnc(Nc3ccc(C(=O)NC4CCN(CCOCCNCC(=O)Nc5cccc6c5CN(C5CCC(=O)NC5=O)C6=O)CC4)cc3OC)nc2N1Cc1ccc(Cl)s1 (stereo partly drawn) [UB-180725] |  | < 10 |  | 100 to 1000 | 100 to 1000 | 10 to 100 | 100 to 1000 | 100 to 1000 | 100 to 1000 | < 10 | < 10 | < 10 | 100 to 1000 | 100 to 1000 | 100 to 1000 | 100 to 1000 | EC50 (Daudi [21]): 100 to 1000 nM; EC50 (U937 [22]): 100 to 1000 nM; EC50 (A549 [23]): 100 to 1000 nM

From patent publication US20210369853A1, “TARGETED PROTEASE DEGRADATION PLATFORM” (EUBULUS BIOTHERAPEUTICS INC., priority 2018, published 2021)
